Experimental data as given in patent publication US9060519B2, “Insecticidally active pyridyl-thiazole and pyridyl-thiadiazole derivatives” (Syngenta Participations AG, priority 2011, dated 2015).

Legend:
[1] = test system: Myzus persicae (green peach aphid); experiment: Activity against Myzus persicae (mixed population, feeding/residual contact activity, preventive); format: in vivo; conditions: foliar, 144 h, sunflower leaf discs sprayed, aphids of mixed ages, mortality after 6 days
Experimental: Activity against Myzus persicae (Green Peach Aphid)
(Mixed Population, Feeding/Residual Contact Activity, Preventive)
Sunflower leaf discs were placed on agar in a 24-well microtiter plate and sprayed with test solutions. After drying, the leaf discs were infested with an aphid population of mixed ages. After an incubation period of 6 days, samples were checked for mortality.

[2] = test system: Plutella xylostella (diamond back moth); experiment: Plutella xylostella (larvicide, feeding/residual contact activity, preventive); format: in vivo; conditions: 200 ppm; artificial diet in MTP, L2 larvae; larval mortality, antifeedant, growth regulation after 5 days
Experimental: Plutella xylostella (Diamond Back Moth) (Larvicide, Feeding/Residual Contact Activity, Preventive) 24-well microtiter plate (MTP) with artificial diet was treated with test solutions by pipetting. After drying, the MTP's were infested with larvae (L2)(10-15 per well). After an incubation period of 5 days, samples were checked for larval mortality, antifeedant and growth regulation.

CC/C(=N\Oc1nc(C)cc(C)n1)c1sc(-c2cccnc2)nc1Cl [Compound 1.047]
pest or weed control at 200 ppm [1]: > 80%

Cc1cc(C)nc(O/N=C(/c2sc(-c3cccnc3)nc2Cl)C2CC2)n1 [Compound 1.045]
melting point: 53 to 55 °C

C/C(=N\Oc1ncccc1SC(C)C)c1sc(-c2cccnc2)nc1C [Compound 1.056]
pest or weed control at 200 ppm [1]: > 80%

COc1cc(OC)nc(O/N=C(\C)c2sc(-c3cccnc3)nc2C)n1 [Compound 1.009]
pest or weed control at 200 ppm [1]: > 80%

Clc1nc(-c2cccnc2)sc1/C(=N/Oc1ncccn1)C1CC1 [Compound 1.044]
melting point: 127 to 130 °C

COc1nc(OC)nc(O/N=C(\C)c2sc(-c3cccnc3)nc2C)n1 [Compound 1.060]
pest or weed control at 200 ppm [1]: > 80%

C/C(=N\Oc1nc(C)cc(C)n1)c1sc(-c2cccnc2)nc1Cl [Compound 1.057]
pest or weed control at 200 ppm [1]: > 80%

C/C(=N\Oc1ncccn1)c1cnc(-c2cccnc2)s1 [Compound 1.041, 1-[2-(3-pyridyl)thiazol-5-yl]-N-pyrimidin-2-yloxy-ethanimine]
pest or weed control at 200 ppm [1]: > 80%

C/C(=N\Oc1cc(Cl)cnc1Cl)c1sc(-c2cccnc2)nc1C [Compound 1.008]
pest or weed control at 200 ppm [1]: > 80%

COCc1cc(C)nc(O/N=C(\C)c2sc(-c3cccnc3)nc2C)n1 [Compound 1.032]
pest or weed control at 200 ppm [1]: > 80%

CSc1cc(F)cnc1O/N=C(\C)c1sc(-c2cccnc2)nc1C [Compound 1.055]
melting point: 149 to 151 °C

COc1cc(OC)nc(O/N=C(\C)c2sc(-c3cccnc3)nc2Cl)n1 [Compound 1.058, 1-[4-chloro-2-(3-pyridyl)thiazol-5-yl]-N-(4,6-dimethoxypyrimidin-2-yl)oxy-ethanimine]
pest or weed control at 200 ppm [1]: > 80%

C#CCOc1ccc(O/N=C(\C)c2sc(-c3cccnc3)nc2C)nn1 [Compound 1.002]
melting point: 152 to 154 °C

C/C(=N\Oc1nc(C)cc(C)n1)c1sc(-c2cccnc2)nc1C [Compound 1.010]
pest or weed control at 200 ppm [1]: > 80%

COc1cc(OC)nc(O/N=C(/c2sc(-c3cccnc3)nc2Cl)C(F)(F)F)n1 [Compound 1.043]
melting point: 109 to 111 °C

C/C(=N\Oc1ccc(C)nn1)c1sc(-c2cccnc2)nc1C [Compound 1.004]
melting point: 179 to 181 °C

C/C(=N\Oc1ncc([N+](=O)[O-])cn1)c1sc(-c2cccnc2)nc1C [Compound 1.018]
melting point: 174 to 176 °C

C/C(=N\Oc1nccc(C)n1)c1sc(-c2cccnc2)nc1C [Compound 1.029]
pest or weed control at 200 ppm [1]: > 80%

C/C(=N\Oc1ncccn1)c1sc(-c2cccnc2)nc1Cl [Compound 1.050]
pest or weed control at 200 ppm [1]: > 80%

COc1cnc(O/N=C(\C)c2sc(-c3cccnc3)nc2C)nc1 [Compound 1.014]
pest or weed control at 200 ppm [1]: > 80%

C/C(=N\Oc1ncc(C(F)(F)F)cn1)c1sc(-c2cccnc2)nc1C [Compound 1.015]
melting point: 165 to 166 °C

COc1ccc(Cl)c(-c2ccc(O/N=C(\C)c3sc(-c4cccnc4)nc3C)nn2)c1 [Compound 1.003]
melting point: 169 to 171 °C

CC/C(=N\Oc1ncccn1)c1sc(-c2cccnc2)nc1Cl [Compound 1.048]
pest or weed control at 200 ppm [1]: > 80%

C/C(=N\Oc1ccc2nnc(C)n2n1)c1sc(-c2cccnc2)nc1C [Compound 1.001]
melting point: 200 to 202 °C

C/C(=N\Oc1ncccn1)c1sc(-c2cccnc2)nc1C [Compound 1.013]
pest or weed control at 200 ppm [1]: > 80%

C/C(=N\Oc1ncccc1Cl)c1sc(-c2cccnc2)nc1C [Compound 1.007]
melting point: 126 to 128 °C

C/C(=N\Oc1ccc(C#N)cn1)c1sc(-c2cccnc2)nc1C [Compound 1.012]
activity [2]: over 80%

CC/C(=N\Oc1nc(OC)cc(OC)n1)c1sc(-c2cccnc2)nc1Cl [Compound 1.049]
pest or weed control at 200 ppm [1]: > 80%

COc1ccc(O/N=C(\C)c2sc(-c3cccnc3)nc2C)nn1 [Compound 1.005]
melting point: 167 to 169 °C
